{"source": "patent US20260373132A1", "about": "“PERK INHIBITORHC-5404 IN COMBINATION WITH ANTI-PD-1 ANTIBODY AND/OR AN ANTIANGIOGENETIC AGENT FOR USE IN THE TREATMENT OF CANCER” (HIBERCELL, INC., priority 2022, published 2026)", "key": {"[1]": {"test_system": "pPERK in mouse pancreas", "assay": "pPERK inhibition (PD) in mouse pancreas", "format": "in vivo", "procedure": "The PK/PD relationship was evaluated in mouse pancreas, as the pancreas has elevated pPERK activity that makes it suitable for PD analysis. […] At these concentrations, pPERK inhibition was approximately 90% (FIG. 19)."}, "[2]": {"test_system": "A498 RCC xenograft", "assay": "A498 RCC xenograft tumor growth", "format": "in vivo, mouse", "procedure": "(§1) Xenograft RCC models were generated as follows: Female NOD.SCID mice (6-8 weeks of age) were injected with A498 RCC cells (5×10^6 cells/mouse), female Balb/c Nude mice (6-8 weeks old) were implanted with 786-O RCC cells (5×10^6 cells/mouse) or Caki-1 RCC cells (6×10^6 cells/mouse), female Athymic Nude-Foxn1nu mice (7-8 weeks of age) were implanted with MFE280 endometrial cells (10×10^6 cells/mouse). Cells were implanted into the flank of animals.\n(§2) Once tumor tumors reached volume of typically 150-250 mm^3, animals were randomized by tumor volume into the treatment groups of 8 or 10 animals per group. In the single animal trial with RCC PDX models, only one animal per group was enrolled.\n(§3) Body weight and tumor volume were measured twice weekly. Tumor volume was calculated using the formula [tumor volume (mm^3)=π/6×length×width^2] and plotted as means+SEM. The percentage of tumor growth inhibition was calculated at the end of the study using the formula: […], if ΔT>0, ΔT, mean tumor volume of the drug-treated group on the observation day of the study—mean tumor volume of the drug-treated group on initial day of dosing; ΔC, mean tumor volume of the control group on the observation day of the study—mean tumor volume of the control group on initial day of dosing. Regression was calculated using the formula=100×ΔT/Tinitial, if ΔT<0. Animals with >50% regressions were partial responders. Animals with tumor volume of 0 (no measurable tumor) were considered as complete responders, and animals with <50% tumor regression and 30% growth over the baseline were considered as stable disease. Animals with tumors>30% increase over the baseline were considered progressive disease. The % change in body weight was calculated by the formula (body weight on observation day−body weight on initial day)/body weight on initial day×100%."}, "[3]": {"test_system": "Caki-1 RCC xenograft", "assay": "Caki-1 RCC xenograft tumor growth", "format": "in vivo, mouse", "procedure": "as §1, §2, §3"}, "[4]": {"test_system": "mouse bone marrow-derived MDSCs / T cells", "assay": "mouse T cell suppression assay with bone marrow-derived MDSCs", "format": "cell-based", "conditions": "LSLG + 500 nM (FIG. 11A, 11C)", "procedure": "Mouse MDSC Preparation: Single cell suspensions from bone marrow were prepared from the tibia and femur bone of C57BL/6 mice. Cells were cultured in RPMI complete medium (RPMI medium supplemented with 10% FBS, 10 mM HEPES, 1 mM Sodium pyruvate, 50 uM 2-ME, 1 mM MEM NEAA, 1× penicillin-streptomycin and 2 mM L-glutamax) at 2.5×10^6 cells per 10 ml in a […] tissue culture dish for 4 days in a 37 0 °C, 5% CO2 humidified incubator. Cytokines GM-CSF (10 ng/ml) and IL-6 (10 ng/mL) were added to the cell culture on day 0. For low serum low glucose (LSLG) medium treatment, cultured cells were first harvested from the plate and washed twice with RPMI medium to rinse off residual serum and glucose, and then cultured in 5 ml of LSLG medium (glucose-free RPMI supplemented with 1% FBS, 1 g/L glucose, 1× penicillin-streptomycin and 2 mM L-glutamax) in a 15 ml conical tube for 6 hours with or without HC-5404 addition. Cells were harvested and used in the T cell suppression assay.\nMouse T cell suppression assay: Spleens were harvested from C57BL/6 mice. […] T cell proliferation was analyzed by flow cytometry. […] The labeled cells were analyzed on a BD Fortessa cytometer and data was analyzed by FlowJo. […] Data were analyzed using one-way ANOVA with multiple comparison corrected with Dunnett test. *P<0.05; **P<0.01; ***P<0.005, ****P<0.0001 (FIGS. 11A, 11B, and 11C)."}, "[5]": {"test_system": "ATF4 targets in gastric PDX (GAO 114-R19P6)", "assay": "ATF4 target proteins in gastric PDX", "format": "in vivo, mouse", "conditions": "7 days, 1 h post-dose (FIG. 81, 82)", "procedure": "Samples were put in 500 μL of Novex lysis buffer consisting of 2× Novex Tris-Glycine SDS sample buffer (ThermoFisher LC2676), 1× Phosphatase Inhibitor Cocktail III (Sigma P0044), 1× PhosphataseArrest I (Gbioscience 113P-D), 1×2-mercaptoethanol (Gibco 21985023), 1× Benzonase (EMD Millipore Corp 70746-3), and 1× Protease inhibitor cocktail tablet (Roche/Sigma 11836170001). Samples were homogenized with the Polytron and heated for 10 min at 95 °C. They were then centrifuged at max speed for 10 min and the supernatant was transferred. Protein concentrations of samples were measured using the Pierce 660 nm Protein assay kit (Thermo Scientific 22660) according to the manufacturer's instructions.\nWestern Blot analysis was performed on the SimpleWestern high-throughput protein analysis platform (ProteinSimple 004-650) according to manufacturer's protocol using a 12-230 kDA Separation Module (ProteinSimple SM-W004) and Total Protein Detection Module (ProteinSimple DM-TP01). Antibodies used were: (Add info for other antibodies used) pPERK (Lilly; 1:50) and PERK (Cell Signaling Technology 5683; 1:200). All protein analytes were normalized to total protein loaded on capillary.\nGastric PDX model (GAO 114-R19P6) PD arm sampled after 7 days, 1 h post-dose."}, "[6]": {"conditions": "10 and 30 mg/kg PO BID tested, 28 days (FIG. 36)"}}}
{"smiles": "Cc1cc(NC(=O)[C@H](O)c2cc(F)cc(F)c2)ccc1-c1cnc(N)c(C(=O)NC(C)C)c1", "note": "[HC-5404, (R)-2-amino-5-(4-(2-(3,5-difluorophenyl)-2-hydroxyacetamido)-2-methylphenyl)-N-isopropylnicotinamide]", "values": [{"measurement": "time until basal pPERK levels restored in pancreas", "setting": "[1]; 30 mg/kg PO, after dosing", "value": "≤ 12", "unit": "h"}, {"measurement": "pPERK activity remaining in pancreas", "setting": "[1]; 100 mg/kg PO, first 12 h", "value": "< 20", "unit": "%"}, {"measurement": "inhibition at 30 mg/kg", "setting": "[1]; Mus musculus, 30 mg/kg PO, 1 h", "value": "~90", "unit": "%"}, {"measurement": "inhibition of p-PERK in pancreas tissue", "setting": "[1]; PO", "value": "time-dependent and dose-dependent inhibition of p-PERK"}, {"measurement": "TGI", "setting": "[2]; [6]", "value": "~41", "unit": "%"}, {"measurement": "TGI", "setting": "[2]; single agent: HC-5404 30 mg/kg PO BID or sunitinib 20 mg/kg PO QD (FIG. 31)", "value": "~ 40%"}, {"measurement": "effect on growth of Caki-1 model", "setting": "[3]; [6]", "value": "minimal effect"}, {"measurement": "sensitivity of Caki-1 to monotherapy", "setting": "[3]; HC-5404 or sunitinib monotherapy, compared with A498 (FIG. 32)", "value": "far less sensitive"}, {"measurement": "inhibition of T-cells by MDSCs", "setting": "[4]", "value": "reduced inhibition of T-cells"}, {"measurement": "ATF4 target genes", "setting": "[5]", "value": "induces ATF4 target genes, including ASNS, PSAT1 and other enzymes involved in amino acid metabolism"}]}
